Laboratory results from publication PMC8364251 (Pharmacological Research, 2021).

What was measured:
Assay type in all cases: cell-based, SARS-CoV-2
[1] = tested on: N439K mutant S-pseudotyped lentivirus
[2] = tested on: N501Y mutant S-pseudotyped lentivirus
[3] = tested on: Y453F mutant S-pseudotyped lentivirus

O=C(O[C@@H]1Cc2c(O)cc(O)cc2O[C@@H]1c1cc(O)c(O)c(O)c1)c1cc(O)c(O)c(O)c1 [EGCG, epigallocatechin gallate]
inhibition of mutant pseudovirus infection [1]: effectively inhibited the infection of all mutants | inhibition of mutant pseudovirus infection [2]: effectively inhibited the infection of all mutants | inhibition of mutant pseudovirus infection [3]: effectively inhibited the infection of all mutants
